# Earlier results, collected in US8496977B2, “Natural extract from whole banana fruit (Musa Spp)” (priority 2009, dated 2013).
# Tests used:
# eicosanoid synthesis = conditions: by modulating eicosanoid synthesis
structure (smiles),measurement,setting,value
NCCc1ccc(O)c(O)c1 [dopamine],protection against intestinal mucosal injury,eicosanoid synthesis,protect against intestinal mucosal injury
same,radical-scavenging rate,compared with catechin and gallocatechin gallate,faster radical-scavenging rate than catechin
same,antioxidative potency,compared with other antioxidants,"greater than that of BHA, BHT, flavonoids, glutathione, and catechin"
